Test results taken from patent publication US12582667B2, “Compositions and methods to treat metastatic gastrointestinal cancer” (The Rockefeller University, priority 2019, dated 2026).
Values belong to the molecule of their own block, whether it stands above or below them.

Key:
Solubility of β-GPA = type: physicochemical
CRC cells [1] = assay: In vitro hypoxia cell growth assay with leflunomide; type: cell-based, human; conditions: for impairment of proliferation, hypoxia versus normoxia: hypoxia compared with normoxia
Description: In Vitro Hypoxia Cell Growth Assays
Lvm3b cells or LS174T cells were grown under normoxia for 24 hours followed by incubation for 5 days under 0.5% oxygen and then counted using the Sceptor 2.0 automated Cell Counter (Millipore).
Dihydroorotate Dehydrogenase (DHODH) is a key enzyme in the metabolic pathway that […] dihydroorotate to orotate, which is ultimately converted to the pyrimidine nucleotides UTP and CTP. To further confirm that pyrimidine biosynthesis promotes CRC hypoxic growth, CRC growth upon DHODH inhibition was assessed.

Lvm3b cells [2] = assay: Lvm3b liver metastatic colonization in athymic nude mice; type: in vivo, mouse
Description: FIGS. 3A and 3B are a set of diagrams showing the effects of the DHODH inhibitor in inhibiting liver metastatic colonization. […] The mice were imaged every week. Firefly luciferase bioluminescent images are shown (p<0.0001, Student's t-test).
(§1) All animal work was conducted in accordance with a protocol approved by the Institutional Animal Care and Use Committee (IACUC) at The Rockefeller University and Memorial Sloan Kettering Cancer Center. […] For functional studies of PCK1, colorectal cancer cells (SW480 or LS174T) that had been stably transduced with a luciferase reporter (Ponomarev et al., 2004) were subjected to portal circulation injection in NSG mice; after two minutes, a splenectomy was performed. For functional and pharmacology studies of DHODH, colorectal cancer cells (Lvm3b) that had been stably transduced with a luciferase reporter were subjected to portal circulation injection in athymic nude mice; after two minutes, a splenectomy was performed. Mice were imaged weekly; experiments were terminated when the luciferase signal had saturated or the mice were too ill, whichever occurred first.
Chow was removed from cages four hours prior to injection of LS174T cells. Gavage with either 3-MPA (200 mg/kg in aqueous solution) or placebo was performed one hour prior to the injection of LS174T cells. 1×10^6 LS174T cells were injected into the portal systemic circulation as described in the Animals section above. Chow was returned to cages after injection. On day 1, chow was removed from cages; 3-MPA or placebo was administered via gavage four hours post-chow removal. Chow was returned to cages four hours after drug administration. Mice were imaged bi-weekly. […] An equivalent volume of DMSO was intraperitoneally injected every day to the control cohort.
To directly test this, highly metastatic LVM3b CRC cells of DHODH were depleted.

[3] = tested on: two distinct CRC populations; assay: Primary tumor growth of CRC populations under leflunomide; type: in vivo; conditions: leflunomide treatment
LS174T cells [4] = assay: 3-Mercaptopicolinic acid in vitro growth assay; type: cell-based, human; conditions: 24-hour exposure to 1 mM 3 MPA in media, terminated on day 5
Description: 3-Mercaptopicolinic Acid In Vitro Growth Assay
LS174T cells were seeded in 6-well plates. On day 1, the media was replaced with either control media or media supplemented with 1 mM 3 MPA. On day 2, all the media was replaced with control media. The experiment was terminated on day 5.
2×10^4 LS174T cells were seeded in triplicate. On day 1, the media was replaced with either control media or media supplemented with 1 mM 3 MPA. On day 2, all the media was replaced with control media. The experiment was terminated on day 5.

CRC cells [5] = assay: Liver colonization after portal circulation injection of 3-MPA pre-treated CRC cells; type: in vivo, mouse; conditions: cells pre-treated in vitro for 24 hours, then portal circulation injection; p=0.01
Description: as §1
Due to the strong reduction in mCRC liver colonization observed upon PCK1 depletion, it was hypothesized that PCK1 inhibition may represent a potential therapeutic strategy for impairing CRC metastatic progression. In vivo proof-of-principle experiments were performed in two independent CRC cell lines with a PCK1-inhibitor, 3-mercaptopicolinic acid (3-MPA) (N. W. DiTullio, et al. Biochem J 138, 387-394 (1974)). […]

LS174T cells [6] = assay: Subcutaneous tumor growth of 3-MPA pre-treated LS174T cells; type: in vivo, mouse; conditions: pre-treatment of LS174T cells with 3-MPA
LS174T cells [7] = assay: Oral gavage of 3-MPA, LS174T liver colonization model; type: in vivo, mouse; conditions: oral gavage 200 mg/kg prior to cell injection and on day one
Description: as §1
Chow was removed from cages four hours prior to injection of LS174T cells. Gavage with either 3-MPA (200 mg/kg in aqueous solution) or placebo was performed one hour prior to the injection of LS174T cells. 1×10^6 LS174T cells were injected into the portal systemic circulation as described in the Animals section above. Chow was returned to cages after injection. On day 1, chow was removed from cages; 3-MPA or placebo was administered via gavage four hours post-chow removal. […]

Lvm3b cells [8] = conditions: K. Bracht, et al. Br J Cancer 103, 340-346 (2010); cited from earlier work
HS746T cells = assay: HS746T subcutaneous tumor growth in NSG mice; type: in vivo, mouse; conditions: uridine administration, HS746T tumor (FIG. 4C)
Description: MPK: mg/kg body weight of mouse. Tumor size was measured by a digital caliper, and tumor volume was calculated as volume=[…].
Cg-Prkdc^scid Il2rg^tm1Wjl/SzJ (Nod-Scid-Gamma; NSG) mice (n=4 per each cohort).

GAS HI tumor = assay: GAS HI patient-derived tumor growth in athymic nude mice; type: in vivo, mouse; conditions: uridine administration, patient-derived tumor (FIG. 5B; text says FIGS. 5A and 5B)
CRC cells [9] = assay: Uridine rescue of hypoxic growth of PCK1 depleted CRC cells; type: cell-based, human; conditions: uridine supplementation, hypoxia
Description: In Vitro Hypoxia Cell Growth Assays Lvm3b cells or LS174T cells were grown under normoxia for 24 hours followed by incubation for 5 days under 0.5% oxygen and then counted using the Sceptor 2.0 automated Cell Counter (Millipore). The above findings reveal that liver metastatic CRC cells enhance pyrimidine levels and that PCK1 drives pyrimidine nucleotide levels under hypoxia. […] To directly test this, whether the growth defect of PCK1 depletion upon hypoxia could be rescued by the pyrimidine nucleoside uridine was determined. […] The results reveal PCK1 induction to be a mechanism employed by CRC cells to enhance pyrimidine nucleotide levels under hypoxia to promote growth.

solubility in organic solvents (Solubility of β-GPA; organic solvents): low solubility | solubility (Solubility of β-GPA; water): > 50 mg/mL
SMILES: N=C(N)NCCC(=O)O [β-GPA, beta-guanidinopropionic acid]

SMILES: Cc1oncc1C(=O)Nc1ccc(C(F)(F)F)cc1 [leflunomide]
CRC growth in the context of hypoxia (CRC cells [1]; hypoxia (0.5% oxygen)): significantly impaired | impairment of proliferation, hypoxia versus normoxia (CRC cells [1]): impaired proliferation significantly more in the context of hypoxia than under normoxia | impairment of proliferation, hypoxia versus normoxia (CRC cells [1]; listed as Leflunomide): more significant under hypoxia than normoxia | reduction in CRC liver metastatic colonization (Lvm3b cells [2]; 7.5 mg/kg body weight intraperitoneally every day, athymic nude mice, versus DMSO): ~90 fold | liver metastatic colonization of Lvm3b cells (luciferase bioluminescence) (Lvm3b cells [2]; 7.5 mg/kg from day 1, n=4, p<0.0001, Student's t-test): inhibited liver metastatic colonization | survival (Kaplan-Meier) (Lvm3b cells [2]; 7.5 mg/kg, versus control mice, p=0.006): significantly longer survival | primary tumor growth [3]: only modestly impacted

SMILES: O=C(O)c1ncccc1S [3-MPA, 3-mercaptopicolinic acid]
cell growth in vitro (LS174T cells [4]): did not alter cell proliferation in vitro | cell growth in vitro (LS174T cells [4]; listed as 3 MPA): does not alter | mCRC liver colonization in vivo (CRC cells [5]): significantly reduced | subcutaneous tumor growth (LS174T cells [6]): did not, however, alter subcutaneous tumor growth | colorectal cancer liver colonization (LS174T cells [7]): decreased colorectal cancer liver colonization

SMILES: O=c1[nH]cc(F)c(=O)[nH]1 [5-FU, 5-fluorouracil]
resistance of cells to the drug (Lvm3b cells [8]): highly resistant

SMILES: O=c1ccn([C@@H]2O[C@H](CO)[C@@H](O)[C@H]2O)c(=O)[nH]1 [uridine]
rescue of leflunomide-impaired growth upon hypoxia (CRC cells [1]; uridine supplementation, hypoxia, leflunomide treatment): rescued | rescue of leflunomide-induced tumor growth reduction (HS746T cells): rescued | rescue of leflunomide induced tumor growth suppression (GAS HI tumor): rescued | rescue of hypoxic growth defect upon PCK1 depletion (CRC cells [9]): rescued the hypoxic growth defect
